Reference: USRE32347E, “Hypocalcaemic peptides and process for their manufacture” (Ciba-Geigy Corp., priority 1984, dated 1987)
Ends that are not written are not given here.

Key:
[1] = test system: blood calcium level; experiment: rat test described by Kumar et al, J. Endocrinology 33, page 470 [1965] (MRC units); assay type: in vivo; settings: for result in the rat test according to Kumar et al., in words: compared with HT-C2 / parent peptide
Description: It lowers the plasma calcium level and plasma phosphate level of the blood of mammals, as can be shown by tests on rats weighing 50 to 150 g. […] It may therefore be used for the treatment of hypercalcaemiae and of bone diseases such as Paget's disease or osteoporosis.

[2] = test system: calcium level of the blood; experiment: calcium level of the blood in patients with increased bone turn over; assay type: in vivo, human; settings: intravenous, intramuscular or subcutaneous injection of 0.01 to 5 mg, e.g. in 0.1 molar acetate buffer of pH 4.6

Substance | result in the rat test according to Kumar et al., in words [1] | also measured
HT-C1 sulfoxide: sulfoxide obtained from HT-C1 with 5% hydrogenperoxide (CGNLSTCMLGTYTQDFNKFHTFPQTAIGVGAP; ends and bridges not checked; also: dimer (HT-C1, dimer of HT-C2); UniProt P01258 85-116, looked up) | equally active | –
Human calcitonin | – | calcium level of the blood [2]: lowers
HT-C1: the dimer of HT-C2; active component of human calcitonin (CGNLSTCMLGTYTQDFNKFHTFPQTAIGVGAP; ends and bridges not checked; also: dimer; UniProt P01258 85-116, looked up) | about as good results as the product obtained in Example 1 (HT-C2) | –
HT-C11: active component of human calcitonin from fractions with K=4.0 (CGNLSTCMLGTYTQDFNKFHTFPQTAIGVGAP; ends and bridges not checked; cysteine pairing not given here; UniProt P01258 85-116, looked up) | – | activity ([1]; in the rat, per mg of peptide): 100-200 MRC units per mg
